Results published in patent US11618747B2, “LXR modulators with bicyclic core moiety” (OrsoBio, Inc., priority 2018, dated 2023).
Read-outs that look alike come from different tables or passages of the source.

How the values were obtained:
full length (FL) LXRβ = target: T1, full length (FL) LXRβ (Homo sapiens, UniProt P55055, DUP175-175); assay: LXR Gal4 reporter transient transfection assay (FL-M2H Gal4β); assay type: cell-based; conditions: HEK293 cells
T1 construct: the full length (FL) proteins of LXRα (amino acids 1-447); NP005684; NP009052; expressed in transfected cells; host or cells: HEK293
T1 sequence (P55055 with tags, fused parts or gaps DUP175-175): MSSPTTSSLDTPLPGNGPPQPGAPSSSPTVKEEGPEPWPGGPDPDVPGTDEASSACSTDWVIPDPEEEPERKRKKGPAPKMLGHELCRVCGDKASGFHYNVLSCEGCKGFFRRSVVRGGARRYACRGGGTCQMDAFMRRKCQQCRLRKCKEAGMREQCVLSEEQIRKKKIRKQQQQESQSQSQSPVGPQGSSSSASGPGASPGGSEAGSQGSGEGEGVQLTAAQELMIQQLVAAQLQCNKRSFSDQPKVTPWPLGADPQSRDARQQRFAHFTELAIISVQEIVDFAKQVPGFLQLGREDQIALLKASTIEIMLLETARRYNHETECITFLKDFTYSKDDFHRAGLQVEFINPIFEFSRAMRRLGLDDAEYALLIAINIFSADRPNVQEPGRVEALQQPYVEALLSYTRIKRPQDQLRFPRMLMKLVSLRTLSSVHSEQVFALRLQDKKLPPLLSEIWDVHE
How it was run: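 Test compounds act for 16 h on transiently transfected HEK293 cells carrying AD-LXR and GAL4 BD-cofactor (SRC1 or NCoR) fusions. Firefly luciferase under GAL4 elements is quantified and corrected with Renilla luciferase for transfection efficiency.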

[1] = Short term HFD mouse model: plasma and liver exposure; assay type: in vivo, mice (C57BL/6J); conditions: HFD mice, 4 h after last dose
Protocol: Short Term HFD Mouse Model:
The in vivo transcriptional regulation of several LXR target genes by LXR modulators was assessed in mice.
For this, C57BL/6J were purchased from Elevage Janvier (Rennes, France) at the age of 8 weeks. After an acclimation period of two weeks, animals were preferred on a high fat diet (HFD) (Ssniff Spezialdiäten GmbH, Germany, Surwit EF D12330 mod, Cat. No. E15771-34), with 60 kcal % from fat plus 1% (w/w) extra cholesterol (Sigma-Aldrich, St. Louis, Mo.) for 5 days. Animals were maintained on this diet during treatment with LXR modulators. The test compounds were formulated in 0.5% hydroxypropylmethylcellulose (HPMC) and administered in three doses (from 1.5 to 20 mg/kg each) by oral gavage according to the following schedule: on day one, animals received treatment in the morning and the evening (ca. 17:00), on day two animals received the final treatment in the morning after a 4 h fast and were sacrificed 4 h thereafter. Animal work was conducted according to the national guidelines for animal care in Germany.
Upon termination, liver was collected, dipped in ice cold PBS for 30 seconds and cut into appropriate pieces. Pieces were snap frozen in liquid nitrogen and stored at −80° C. For the clinical chemistry analysis from plasma, alanine aminotransferase (ALT, IU/mL), cholesterol (CHOL, mg/dL) and triglycerides (TG, mg/dL) were determined using a fully-automated bench top analyzer (Respons®910, DiaSys Greiner GmbH, Flacht, Germany) with system kits provided by the manufacturer.

[2] = full length LXRβ, read-out: FL-M2H Gal4β (EC50 range)

| Structure (SMILES) | EC50 (full length (FL) LXRβ; [2]) [nM] | liver exposure 4 h ([1]; three oral doses of 20 mg/kg) | liver/plasma ratio 4 h ([1]; three oral doses of 20 mg/kg) | plasma exposure 4 h ([1]; three oral doses of 20 mg/kg) | liver exposure 4 h ([1]; three oral doses of 10 mg/kg) | liver/plasma ratio 4 h ([1]; three oral doses of 10 mg/kg) | plasma exposure 4 h ([1]; three oral doses of 10 mg/kg) | FL-M2H Gal4β efficacy (value in brackets) (full length (FL) LXRβ) [%] | EC50 (full length (FL) LXRβ; read-out: FL-M2H Gal4β potency) [nM] |
| --- | --- | --- | --- | --- | --- | --- | --- | --- | --- |
| Cc1ccc(S(=O)(=O)n2c(-c3cccc(-c4ccc(C(=O)O)cc4Cl)c3)c(-c3ccsc3C#N)c3cc(F)ccc32)cc1 [3/48] | < 100 | C (1 μM to ≤10 μM) | C (30 to ≤100) | D (D: <100 nM) | – | – | – | – | – |
| O=C(O)c1ccc(-c2cccc(-c3c(-c4ccccc4C4COC4)c4cc(F)ccc4n3S(=O)(=O)c3ccc(C(F)F)cc3)c2)c(Cl)c1 [3/59] | < 100 | C (1 μM to ≤10 μM) | B (5 to ≤30) | C (C: 100 nM to <300 nM) | – | – | – | – | – |
| Cc1ccc(S(=O)(=O)n2c(-c3cccc(C45CCC(C(=O)O)(CC4)CC5)c3)c(-c3ccsc3C#N)c3cc(F)ccc32)cc1 [3/64] | < 100 | D (>10 μM) | D (>100) | C (C: 100 nM to <300 nM) | – | – | – | – | – |
| N#Cc1cccc(C#N)c1-c1c(-c2cccc(-c3c(F)cc(CC(=O)O)cc3F)c2)n(S(=O)(=O)c2ccc(C(F)F)cc2)c2ccc(F)cc12 [3/73] | < 100 | – | – | – | B (300 nM to ≤1 μM) | C (30 to ≤100) | D (D: <100 nM) | – | – |
| Cc1ccc(S(=O)(=O)n2c(-c3cccc(-c4ccc(C(=O)O)cc4)c3)c(-c3ccsc3C#N)c3cc(F)ccc32)cc1 [5/3] | < 100 | C (1 μM to ≤10 μM) | B (5 to ≤30) | D (D: <100 nM) | – | – | – | – | – |
| CC(=O)NS(=O)(=O)c1ccc(-c2cccc(-c3c(-c4c(C#N)cccc4C#N)c4cc(F)ccc4n3S(=O)(=O)c3ccc(C(F)F)cc3)c2)c(Cl)c1 [8/8] | < 100 | – | – | – | B (300 nM to ≤1 μM) | B (5 to ≤30) | C (C: 100 nM to <300 nM) | – | – |
| N#Cc1cccc(C#N)c1-c1c(-c2cccc(-c3ccc(C(=O)NCCS(=O)(=O)O)cc3Cl)c2)n(S(=O)(=O)c2ccc(C(F)F)cc2)c2ccc(F)cc12 [10/1] | < 100 | – | – | – | B (300 nM to ≤1 μM) | C (30 to ≤100) | D (D: <100 nM) | – | – |
| CN(CCS(=O)(=O)O)C(=O)c1ccc(-c2cccc(-c3c(-c4c(C#N)cccc4C#N)c4cc(F)ccc4n3S(=O)(=O)c3ccc(C(F)F)cc3)c2)c(Cl)c1 [10/2] | < 100 | – | – | – | D (>10 μM) | B (5 to ≤30) | D (D: <100 nM) | – | – |
| N#Cc1nccnc1-c1c(-c2cccc(-c3cc(F)c(C(=O)O)cc3Cl)c2)n(S(=O)(=O)c2ccc(C(F)F)cc2)c2ccc(F)cc12 [11/11] | < 100 | D (>10 μM) | D (>100) | D (D: <100 nM) | – | – | – | – | – |
| N#Cc1cccc(C#N)c1-c1c(-c2cccc(-c3ccc(C(=O)O)cc3Cl)c2)n(S(=O)(=O)c2ccc(C(F)F)cc2)c2ccc(F)cc12 [11/12] | < 100 | C (1 μM to ≤10 μM) | C (30 to ≤100) | D (D: <100 nM) | – | – | – | – | – |
| O=C(O)c1ccc(-c2cccc(-c3c(-c4c(Cl)cccc4Cl)c4cc(F)ccc4n3S(=O)(=O)c3ccc(C(F)F)cc3)c2)c(Cl)c1 [11/13] | < 100 | C (1 μM to ≤10 μM) | A (<5) | A (A: >1 μM) | – | – | – | – | – |
| N#Cc1sccc1-c1c(-c2cccc(-c3ccc(C(=O)O)cc3Cl)c2)n(S(=O)(=O)c2ccc(C(F)(F)F)nc2)c2ccc(F)cc12 [11/16] | < 100 | C (1 μM to ≤10 μM) | B (5 to ≤30) | C (C: 100 nM to <300 nM) | – | – | – | – | – |
| O=C(O)c1ccc(-c2cccc(-c3c(-c4ncccc4C(F)(F)F)c4cc(F)ccc4n3S(=O)(=O)c3ccc(C(F)F)cc3)c2)c(Cl)c1 [11/23] | < 100 | C (1 μM to ≤10 μM) | B (5 to ≤30) | C (C: 100 nM to <300 nM) | – | – | – | – | – |
| N#Cc1cccnc1-c1c(-c2cccc(-c3ccc(C(=O)O)cc3Cl)c2)n(S(=O)(=O)c2ccc(C(F)F)cc2)c2ccc(F)cc12 [11/26] | < 100 | – | – | – | C (1 μM to ≤10 μM) | C (30 to ≤100) | C (C: 100 nM to <300 nM) | – | – |
| COc1c(C(=O)O)ccc(-c2cccc(-c3c(-c4ccccc4C#N)c4cc(F)ccc4n3S(=O)(=O)c3ccc(C(F)F)cc3)c2)c1Cl [11/27] | < 100 | C (1 μM to ≤10 μM) | C (30 to ≤100) | D (D: <100 nM) | – | – | – | – | – |
| N#Cc1ccccc1-c1c(-c2cccc(-c3ccc(C(=O)O)cc3Cl)c2)n(S(=O)(=O)c2ccc(C(F)F)cc2)c2ccc(F)cc12 [11/33] | < 100 | C (1 μM to ≤10 μM) | C (30 to ≤100) | C (C: 100 nM to <300 nM) | – | – | – | 130 | 1.7 |
| N#Cc1cccc(C#N)c1-c1c(-c2cccc(-c3ccc(C(=O)O)cc3Cl)c2)n(S(=O)(=O)c2ccc(C(F)(F)F)nc2)c2ccc(F)cc12 [11/37] | < 100 | – | – | – | C (1 μM to ≤10 μM) | C (30 to ≤100) | D (D: <100 nM) | – | – |
| N#Cc1ccccc1-c1c(-c2cccc(-c3ccc(C(=O)O)cc3Cl)c2)n(S(=O)(=O)c2ccc(C(F)F)cc2)c2cnccc12 [11/49] | < 100 | C (1 μM to ≤10 μM) | D (>100) | D (D: <100 nM) | – | – | – | – | – |
| N#Cc1cccc(C#N)c1-c1c(-c2cccc(-c3ccc(C(=O)O)cc3F)c2)n(S(=O)(=O)c2ccc(C(F)F)cc2)c2ccc(F)cc12 [11/51] | < 100 | – | – | – | C (1 μM to ≤10 μM) | C (30 to ≤100) | D (D: <100 nM) | – | – |
| N#Cc1cccc(C#N)c1-c1c(-c2cccc(-c3c(F)cc(C(=O)O)cc3F)c2)n(S(=O)(=O)c2ccc(C(F)F)cc2)c2ccc(F)cc12 [11/53] | < 100 | – | – | – | C (1 μM to ≤10 μM) | C (30 to ≤100) | D (D: <100 nM) | – | – |
